# Data as given in patent US10809268B2, “Methods and kits for measuring and quantifying DNA double-stranded breaks using gamma-H2AX and H2AX” (The United States of America, as represented by the …, priority 2015, dated 2020).
# B1: TRAIL: apoptosis-inducing biomolecule tumor necrosis factor (TNF)-related apoptosis-inducing ligand (protein, UniProt P50591 1-281, looked up)
# Tumor necrosis factor ligand …: MAMMEVQGGPSLGQTCVLIVIFTVLLQSLCVAVTYVYFTNELKQMQDKYSKSGIACFLKEDDSYWDPNDEESMNSPCWQVKWQLRQLVRKMILRTSEETISTVQEKQQNISPLVRERGPQRVAAHITGTRGRSNTLSSPNSKNEKALGRKINSWESSRSGHSFLSNLHLRNGELVIHEKGFYYIYSQTYFRFQEEIKENTKNDKQMVQYIYKYTSYPDPILLMKSARNSCWSKDAEYGLYSIYQGGIFELKENDRIFVSVTNEHLIDMDHEASFFGAFLVG
# How the values were obtained:
# A375 xenografts = experiment: γ-H2AX and total H2AX immunoassays on cells from drug-treated A375 xenograft mouse models; conditions: A375 xenografts in vivo; PARPi given simultaneously or four hours before CPT-11
# Method: Pierce REACTI-BIND plates (96-well) (Thermo Scientific) were coated with anti-7-H2AX antibody (Millipore) diluted to a concentration of 4 μg/mL in 0.1 M pH 9.6 carbonate buffer (Sigma-Aldrich, St. Louis, Mo.), 100 μL/well, for 2 hours at 37° C. The γ-H2AX synthetic peptide standard or a whole-cell extract was added to each well and incubated for antigen capture overnight at 4° C. Plates were incubated with 100 μL/well of 2 μg/mL anti-histone H2AX rabbit polyclonal antibody (Abcam) diluted in 2% bovine serum albumin (BSA)/phosphate buffered saline (PBS) supplemented with 1 μL/mL mouse serum for 2 hours (h) at 24° C. Subsequently, 100 μL/well HRP-conjugated affinity-purified goat anti-rabbit (KPL) was added at a final concentration of 1 μg/mL diluted in 2% BSA/PBS, supplemented with 1 μL/mL mouse serum, and incubated for 1 hour at 24° C. […] M200 plate reader (Tecan Group Ltr., Maennedorf, Switzerland). A standard curve was generated by plotting the RLU (relative light unit) values that were obtained for a range of concentrations of the γ-H2AX standard peptide (FIG. 1A). The average γ-H2AX concentration for each cell extract was then determined using the standard curve (FIG. 1B).
# A375 xenograft mouse models were treated with vehicle (control), CPT-11 alone, a PARP inhibitor alone, a combination of CPT-11 and the PARP inhibitor (PARPi) administered simultaneously, or a combination of CPT-11 and the PARPi, wherein the PARPi is administered four hours before CPT-11 is administered. […] Cells from the treated mice were quantified for γ-H2AX and total H2AX using the immunoassays of Examples 1 and 2, respectively, and the ratio of γ-H2AX to total H2AX was determined.
# [1] = system: tumors of the human breast carcinoma cell line MX1; experiment: γ-H2AX and total H2AX immunoassays on tumor biopsies of drug-treated nude mice with MX1 tumors; type: in vivo
# Method: Pierce REACTI-BIND plates (96-well) (Thermo Scientific) were coated with anti-7-H2AX antibody (Millipore) diluted to a concentration of 4 μg/mL in 0.1 M pH 9.6 carbonate buffer (Sigma-Aldrich, St. Louis, Mo.), 100 μL/well, for 2 hours at 37° C. The γ-H2AX synthetic peptide standard or a whole-cell extract was added to each well and incubated for antigen capture overnight at 4° C. Plates were incubated with 100 μL/well of 2 μg/mL anti-histone H2AX rabbit polyclonal antibody (Abcam) diluted in 2% bovine serum albumin (BSA)/phosphate buffered saline (PBS) supplemented with 1 μL/mL mouse serum for 2 hours (h) at 24° C. […] Finally, 100 μL/well of freshly prepared SUPERSIGNAL ELISA Pico chemiluminescent substrate (Thermo Scientific, Waltham, Mass.) was added to the plate and immediately read on a TECAN INFINITE M200 plate reader (Tecan Group Ltr., Maennedorf, Switzerland). […] The average γ-H2AX concentration for each cell extract was then determined using the standard curve (FIG. 1B).
# Pierce REACTI-BIND plates (96-well) were coated with total anti-H2A core protein HIST1H2AC monoclonal antibody (Novus, St. Charles, Mo.) diluted to a concentration of 4 μg/mL in 0.1 M pH 9.6 carbonate buffer (Sigma-Aldrich), 100 μL/well, for 2 hours at 37° C. […] The average total H2AX concentration for each cell extract was then determined using the standard curve (FIG. 2B). […]
# MCF7 cells = experiment: γ-H2AX and total H2AX immunoassays in MCF7 cells treated with SN38 and ATR inhibitors; type: cell-based, human; conditions: SN38 0.25 μM plus ATRi 1 or 0.5 μM
# [2] = system: γ-H2AX in HT29 or MCF7 cells; experiment: Microscope staining with labeled anti-γ-H2AX antibody (IFA) of cells treated as in Example 14; type: cell-based, human; conditions: 10 nM, 100 nM, 1 μM and 10 μM CPT; intensity increased with concentration
# Source text: The presence of γ-H2AX in the cells treated as described in Example 14 was confirmed by staining using a labeled anti-γ-H2AX antibody and observing the intensity of the staining through a microscope. […] The staining intensity increased as the concentration of CPT used to treat the cells increased.
# The γ-H2AX in the cells treated as described in Example 14 was quantified by staining using a labeled anti-γ-H2AX antibody and measuring the intensity of the staining observed through a microscope (immunofluorescence microscope assay (IFA)). The quantity of γ-H2AX measured by staining intensity was compared to the ratio of γ-H2AX to total H2AX measured by the immunoassays (IA) of Examples 1 and 2. The results are shown in FIG. 18A (HT29) and FIG. 18B (MCF7).
# HT29 cells = experiment: Ratio of γ-H2AX to total H2AX in HT29 cells treated 1 hour in vitro; type: cell-based, human
# Method: Pierce REACTI-BIND plates (96-well) (Thermo Scientific) were coated with anti-7-H2AX antibody (Millipore) diluted to a concentration of 4 μg/mL in 0.1 M pH 9.6 carbonate buffer (Sigma-Aldrich, St. Louis, Mo.), 100 μL/well, for 2 hours at 37° C. The γ-H2AX synthetic peptide standard or a whole-cell extract was added to each well and incubated for antigen capture overnight at 4° C. Plates were incubated with 100 μL/well of 2 μg/mL anti-histone H2AX rabbit polyclonal antibody (Abcam) diluted in 2% bovine serum albumin (BSA)/phosphate buffered saline (PBS) supplemented with 1 μL/mL mouse serum for 2 hours (h) at 24° C. Subsequently, 100 μL/well HRP-conjugated affinity-purified goat anti-rabbit (KPL) was added at a final concentration of 1 μg/mL diluted in 2% BSA/PBS, supplemented with 1 μL/mL mouse serum, and incubated for 1 hour at 24° C. Finally, 100 μL/well of freshly prepared SUPERSIGNAL ELISA Pico chemiluminescent substrate (Thermo Scientific, Waltham, Mass.) was added to the plate and immediately read on a TECAN INFINITE M200 plate reader (Tecan Group Ltr., Maennedorf, Switzerland). […] The average γ-H2AX concentration for each cell extract was then determined using the standard curve (FIG. 1B).
# Pierce REACTI-BIND plates (96-well) were coated with total anti-H2A core protein HIST1H2AC monoclonal antibody (Novus, St. Charles, Mo.) diluted to a concentration of 4 μg/mL in 0.1 M pH 9.6 carbonate buffer (Sigma-Aldrich), 100 μL/well, for 2 hours at 37° C. […] Finally, 100 μL/well of freshly prepared SUPERSIGNAL ELISA Pico chemiluminescent substrate (Thermo Scientific) was added to the plate and immediately read on a TECAN INFINITE M200 plate reader. […] The average total H2AX concentration for each cell extract was then determined using the standard curve (FIG. 2B).
# HT29 cells were treated with the genotoxic agent camptothecin (CPT) or the non-genotoxic agent rhomidepsin for 1 hour at a concentration of 0 (vehicle) 0.001, 0.001, 0.01, 1 or 10 μM. […] DNA DSB, as measured by the ratio of γ-H2AX to total H2AX, was detected with CPT treatment as low as 1 nM. […]
# γ-H2AX in HCT116 cells [3] = experiment: γ-H2AX detection by immunofluorescence assay (IFA) in treated HCT116 cell cultures; type: cell-based, human
# Method: (§1) Human […] cancer cell lines HCT 116 or MCF 7 (ATCC) were cultured with 10% fetal bovine serum at 37° C. in a 5% CO2 incubator. The cells were treated with the topoisomerase I inhibitor topotecan, the apoptosis-inducing biomolecule tumor necrosis factor (TNF)-related apoptosis-inducing ligand (TRAIL), or IR. The γ-H2AX immunoassay (γ-H2AX ELISA) was compared with γ-H2AX detection by both Western blot and immunofluorescence assay (IFA).
# (§2) The ELISA detected changes in γ-H2AX in HCT116 cell cultures induced by a variety of treatments in vitro and was overall highly correlated to both IFA and Western blot following treatment with topotecan or TRAIL (Table 6).
# γ-H2AX in HCT116 cells [4] = experiment: γ-H2AX immunoassay (γ-H2AX ELISA) in treated HCT116 cell cultures; type: cell-based, human
# Method: Pierce REACTI-BIND plates (96-well) (Thermo Scientific) were coated with anti-7-H2AX antibody (Millipore) diluted to a concentration of 4 μg/mL in 0.1 M pH 9.6 carbonate buffer (Sigma-Aldrich, St. Louis, Mo.), 100 μL/well, for 2 hours at 37° C. The γ-H2AX synthetic peptide standard or a whole-cell extract was added to each well and incubated for antigen capture overnight at 4° C. Plates were incubated with 100 μL/well of 2 μg/mL anti-histone H2AX rabbit polyclonal antibody (Abcam) diluted in 2% bovine serum albumin (BSA)/phosphate buffered saline (PBS) supplemented with 1 μL/mL mouse serum for 2 hours (h) at 24° C. Subsequently, 100 μL/well HRP-conjugated affinity-purified goat anti-rabbit (KPL) was added at a final concentration of 1 μg/mL diluted in 2% BSA/PBS, supplemented with 1 μL/mL mouse serum, and incubated for 1 hour at 24° C. Finally, 100 μL/well of freshly prepared SUPERSIGNAL ELISA Pico chemiluminescent substrate (Thermo Scientific, Waltham, Mass.) was added to the plate and immediately read on a TECAN INFINITE M200 plate reader (Tecan Group Ltr., Maennedorf, Switzerland). A standard curve was generated by plotting the RLU (relative light unit) values that were obtained for a range of concentrations of the γ-H2AX standard peptide (FIG. 1A). The average γ-H2AX concentration for each cell extract was then determined using the standard curve (FIG. 1B).
# as §1, §2
# γ-H2AX in HCT116 cells [5] = experiment: γ-H2AX detection by Western blot in treated HCT116 cell cultures; type: cell-based, human
# Method: as §1, §2
molecule,measurement,setting,value
C[C@]1(c2nc3c(C(N)=O)cccc3[nH]2)CCCN1 [ABT-888],induction of γ-H2AX (DNA DSB) in combination with CPT-11,A375 xenografts,synergistic induction of γ-H2AX
O=C(c1cc(Cc2n[nH]c(=O)c3ccccc23)ccc1F)N1CCN(C(=O)C2CC2)CC1 [AZD2281],γ-H2AX induction (ratio of γH2AX to total H2AX),"[1]; 50 or 6.25 units AZD2281 IP in combination with irinotecan 7.5 units IV, particularly at 4 hours after administration",induced substantially more γ-H2AX
same,induction of γ-H2AX (DNA DSB) in combination with CPT-11,A375 xenografts,synergistic induction of γ-H2AX
C[C@@H]1COCCN1c1cc(C2([S@](C)(=N)=O)CC2)nc(-c2cc[nH]c3nccc2-3)n1 [AZD-6738],synergy for γ-H2AX induction in combination with the Top1 inhibitor SN38,MCF7 cells,highest synergy
"CC[C@@]1(O)C(=O)OCc2c1cc1n(c2=O)Cc2cc3ccccc3nc2-1 [CPT, camptothecin]",staining with labeled anti-γ-H2AX antibody,[2],Staining was observed
same,"concentration at which DNA DSB, as measured by the ratio of γ-H2AX to total H2AX, was detected",HT29 cells; 1 hour treatment,≥ 1 nM
same,concentration giving a detectable signal of DNA DSB (ratio of γ-H2AX to total H2AX),"HT29 cells; 1 hour, with as few as 160 cells per assay",≥ 0.01 µM
NC(=O)c1cccc2cn(-c3ccc([C@@H]4CCCNC4)cc3)nc12 [MK-4827],induction of γ-H2AX (DNA DSB) in combination with CPT-11,A375 xenografts,synergistic induction of γ-H2AX
Nc1nc(N)c(N=O)c(OCC2CCCCC2)n1 [NU-6027],synergy for γ-H2AX induction in combination with the Top1 inhibitor SN38,MCF7 cells,none
"CC[C@@]1(O)C(=O)OCc2c1cc1n(c2=O)Cc2cc3c(CN(C)C)c(O)ccc3nc2-1 [Topotecan, topotecan]",γ-H2AX IFA,"γ-H2AX in HCT116 cells [3]; Topotecan 1 μM, 0 hr",0.7 RLU
same,γ-H2AX IFA,"γ-H2AX in HCT116 cells [3]; Topotecan 1 μM, 1 hr",23.0 RLU
same,γ-H2AX IFA,"γ-H2AX in HCT116 cells [3]; Topotecan 1 μM, 3 hr",43.9 RLU
same,γ-H2AX IFA,"γ-H2AX in HCT116 cells [3]; Topotecan 1 μM, 6 hr",51.2 RLU
same,γ-H2AX ELISA,"γ-H2AX in HCT116 cells [4]; Topotecan 1 μM, 0 hr",124 pM
same,γ-H2AX ELISA,"γ-H2AX in HCT116 cells [4]; Topotecan 1 μM, 1 hr",2536 pM
same,γ-H2AX ELISA,"γ-H2AX in HCT116 cells [4]; Topotecan 1 μM, 3 hr",3134 pM
same,γ-H2AX ELISA,"γ-H2AX in HCT116 cells [4]; Topotecan 1 μM, 6 hr",4793 pM
same,γ-H2AX Western Blot,"γ-H2AX in HCT116 cells [5]; Topotecan 1 μM, 0 hr",4.7 RLU
same,γ-H2AX Western Blot,"γ-H2AX in HCT116 cells [5]; Topotecan 1 μM, 1 hr",8.1 RLU
same,γ-H2AX Western Blot,"γ-H2AX in HCT116 cells [5]; Topotecan 1 μM, 3 hr",6.9 RLU
same,γ-H2AX Western Blot,"γ-H2AX in HCT116 cells [5]; Topotecan 1 μM, 6 hr",14.3 RLU
CNCc1ccc(-c2cc(-c3nc(-c4ccc(S(=O)(=O)C(C)C)cc4)cnc3N)on2)cc1 [VE-822],synergy for γ-H2AX induction in combination with the Top1 inhibitor SN38,MCF7 cells,highest synergy
CCc1c2c(nc3ccc(OC(=O)N4CCC(N5CCCCC5)CC4)cc13)-c1cc3c(c(=O)n1C2)COC(=O)[C@]3(O)CC [irinotecan],γ-H2AX induction (ratio of γH2AX to total H2AX),"[1]; irinotecan 7.5 units IV alone, MX1 tumor biopsies, nude mice",induced γ-H2AX modestly
C/C=C1\NC(=O)[C@H]2CSSCC/C=C/[C@H](CC(=O)N[C@H](C(C)C)C(=O)N2)OC(=O)[C@H](C(C)C)NC1=O [rhomidepsin],"DNA DSB, as measured by the ratio of γ-H2AX to total H2AX","HT29 cells; 1 hour, even at a concentration as high as 10 μM",no DNA DSB
B1,γ-H2AX IFA,"γ-H2AX in HCT116 cells [3]; TRAIL 0.1 μg/mL, 0 hr",2.0 RLU
same,γ-H2AX IFA,"γ-H2AX in HCT116 cells [3]; TRAIL 0.1 μg/mL, 1 hr",34.5 RLU
same,γ-H2AX IFA,"γ-H2AX in HCT116 cells [3]; TRAIL 0.1 μg/mL, 3 hr",72.2 RLU
same,γ-H2AX IFA,"γ-H2AX in HCT116 cells [3]; TRAIL 0.1 μg/mL, 6 hr",49.6 RLU
same,γ-H2AX ELISA,"γ-H2AX in HCT116 cells [4]; TRAIL 0.1 μg/mL, 0 hr",134 pM
same,γ-H2AX ELISA,"γ-H2AX in HCT116 cells [4]; TRAIL 0.1 μg/mL, 1 hr",2764 pM
same,γ-H2AX ELISA,"γ-H2AX in HCT116 cells [4]; TRAIL 0.1 μg/mL, 3 hr",9276 pM
same,γ-H2AX ELISA,"γ-H2AX in HCT116 cells [4]; TRAIL 0.1 μg/mL, 6 hr",7703 pM
same,γ-H2AX Western Blot,"γ-H2AX in HCT116 cells [5]; TRAIL 0.1 μg/mL, 0 hr",2.7 RLU
same,γ-H2AX Western Blot,"γ-H2AX in HCT116 cells [5]; TRAIL 0.1 μg/mL, 1 hr",17.3 RLU
same,γ-H2AX Western Blot,"γ-H2AX in HCT116 cells [5]; TRAIL 0.1 μg/mL, 3 hr",45.8 RLU
same,γ-H2AX Western Blot,"γ-H2AX in HCT116 cells [5]; TRAIL 0.1 μg/mL, 6 hr",43.5 RLU
